The values that follow come from article PMC9830638, “High-Contrast Detection of Somatostatin Receptor Subtype-2 for Fluorescence-Guided Surgery” (Molecular Pharmaceutics, 2022).

The test system of the assay is orthotopically implanted BON–SSTR2 tumors. As to the kind of experiment: Simulated clinical workflow, PET/CT imaging in orthotopic BON–SSTR2 tumor model. The class given is in vivo, mice. The note with it: orthotopic BON–SSTR2, 7.4 MBq (0.5 nmol), 1 h after injection, n = 5. The method, then:
Mice bearing orthotopically implanted BON–SSTR2 tumors (n = 5) were injected with 7.4 MBq (200 μCi; 0.5 nmol) of ^68Ga-DOTA-TOC and underwent PET/computed tomography (CT) imaging (Albira small animal PET/CT scanner, Bruker) 1 h after injection. […] After euthanasia, tumors were harvested under white light, and the wound bed was re-imaged with NIRF. After a more thorough visual inspection of the wound bed under white light, suspicious lesions were identified and harvested with the intact organ for ex vivo imaging along with other tissues of interest. Tumors, suspicious lesions, and relevant non-tumor tissues were processed for immunohistopathological and mesoscopic imaging.
For CFT two-dimensional (2D) and three-dimensional (3D) reconstruction, 2D images were obtained from individual slices, and an image stack was generated to produce 3D data sets. For PET/CT imaging, region-of-interest analysis was done with Integrated PMOD software (PMOD technologies) to standardize uptake values and determine TBRs.

As for “1,4,7,10-tetraazacyclododecane-1,4,7,10-tetraacetic acid-Tyr^3-octreotide [68Ga-DOTA-TOC]”, the “mice with abnormal uptake in the abdomen (PET/CT)” value is 4 out of 5.
